ChEMBL document CHEMBL1201862, “PubChem BioAssay data set” (2004)
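How tested: cells in 96-well plates exposed to compound for 48 hours at five concentrations. GI50 is the concentration that inhibits growth by half.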 Calls of active or inactive are those of the source. Cut-off read from the data, not from the text of the source: active = GI50 up to about 1.1 µM and inactive = higher.

Legend:
Experiment in all cases: inhibition of tumour cell growth, NCI panel, 48 h
[1] = test system: SF-539
[2] = test system: COLO 205
[3] = test system: SNB-78
[4] = test system: SW-620
[5] = test system: CCRF-CEM
[6] = test system: SN12C
[7] = test system: UACC-62
[8] = test system: NCI-H23
[9] = test system: IGROV-1
[10] = test system: NCI-H460
[11] = test system: HCC 2998
[12] = test system: SK-OV-3
[13] = test system: NCI-H522
[14] = test system: ACHN
[15] = test system: EKVX
[16] = test system: MCF7
[17] = test system: PC-3
[18] = test system: MDA-N
[19] = test system: DU-145
[20] = test system: MDA-MB-435

Compound	GI50 [1]	GI50 [2]	GI50 [3]	GI50 [4]	GI50 [5]	GI50 [6]	GI50 [7]	GI50 [8]	GI50 [9]	GI50 [10]	GI50 [11]	GI50 [12]	GI50 [13]	GI50 [14]	GI50 [15]	GI50 [16]	GI50 [17]	GI50 [18]	GI50 [19]	GI50 [20]
COC(OC)c1cccc2c1C(=O)CCC1(CC2)OCCCCO1	> 100 µM (inactive)	> 100 µM (inactive)	> 100 µM (inactive)	> 100 µM (inactive)	> 100 µM (inactive)	> 100 µM (inactive)	> 100 µM (inactive)	> 100 µM (inactive)	> 100 µM (inactive)	> 100 µM (inactive)	> 100 µM (inactive)	> 100 µM (inactive)	> 100 µM (inactive)	> 100 µM (inactive)						
O=C1NC(=O)C2C(=O)NC(=O)C1C2c1c(Cl)cccc1Cl (configuration not stated)	> 88.3 µM (inactive)	> 41.8 µM (inactive)	> 100 µM (inactive)	> 31.3 µM (inactive)	> 46.7 µM (inactive)	> 83.6 µM (inactive)	> 100 µM (inactive)	> 100 µM (inactive)	> 100 µM (inactive)	> 42.2 µM (inactive)	> 60.5 µM (inactive)	> 100 µM (inactive)	> 77.1 µM (inactive)	> 100 µM (inactive)	> 100 µM (inactive)					
COC1(OC)CC2C(=O)N(Cc3ccccc3)C1C(S(=O)(=O)c1ccccc1)C2S(=O)(=O)c1ccccc1 (configuration not stated)	14 µM (inactive)	4.53 µM (inactive)	18.5 µM (inactive)	2.13 µM (inactive)	2.91 µM (inactive)	12.7 µM (inactive)	13.4 µM (inactive)	13.6 µM (inactive)	17.2 µM (inactive)	27.7 µM (inactive)	17.1 µM (inactive)	30 µM (inactive)	2.02 µM (inactive)	10.6 µM (inactive)						
CCOC(=O)c1cn(CC)c2ccc3c(c2c1=O)S(=O)(=O)C=C3	> 100 µM (inactive)	> 100 µM (inactive)		> 100 µM (inactive)	> 100 µM (inactive)	> 100 µM (inactive)	> 100 µM (inactive)	> 100 µM (inactive)	> 100 µM (inactive)	> 100 µM (inactive)	> 100 µM (inactive)	> 100 µM (inactive)	> 100 µM (inactive)	> 100 µM (inactive)	> 100 µM (inactive)	> 100 µM (inactive)	> 100 µM (inactive)	> 100 µM (inactive)	> 100 µM (inactive)	> 100 µM (inactive)
Cc1cccc(N2C(=O)C(=O)C(c3nc4ccccc4s3)C(=O)C2=O)c1C	> 100 µM (inactive)	> 100 µM (inactive)	> 100 µM (inactive)	> 100 µM (inactive)	35.7 µM (inactive)	> 100 µM (inactive)	> 100 µM (inactive)	> 100 µM (inactive)	> 100 µM (inactive)		> 100 µM (inactive)	> 100 µM (inactive)	> 100 µM (inactive)	> 100 µM (inactive)	> 100 µM (inactive)					
CC1(C)CC(c2c[nH]c3ccccc23)=CC2=Nc3ccccc3C21O (configuration not stated)	93.1 µM (inactive)	> 100 µM (inactive)	76 µM (inactive)	52.1 µM (inactive)	> 100 µM (inactive)	> 100 µM (inactive)	> 100 µM (inactive)	34 µM (inactive)	> 100 µM (inactive)	> 100 µM (inactive)		> 100 µM (inactive)	34.8 µM (inactive)	> 100 µM (inactive)	63.1 µM (inactive)					
O=C(Nc1ccccc1)Oc1ccccc1C1CCCCC1	25.8 µM (inactive)	15.8 µM (inactive)	17.7 µM (inactive)	25.5 µM (inactive)	19.5 µM (inactive)	18.9 µM (inactive)	25.5 µM (inactive)	14.4 µM (inactive)	24.8 µM (inactive)	20 µM (inactive)	25.9 µM (inactive)	44.5 µM (inactive)			20.1 µM (inactive)					
Cc1c(C(=O)C/C(=N/NC(=O)c2ccccc2O)C(=O)Nc2ccccc2C(C)C)[n+]([O-])c2ccccc2[n+]1[O-]	40.6 µM (inactive)	31.7 µM (inactive)	84.7 µM (inactive)	35.4 µM (inactive)	1.47 µM (inactive)	43.8 µM (inactive)	20 µM (inactive)	19.4 µM (inactive)	28.3 µM (inactive)	31.2 µM (inactive)	52.5 µM (inactive)	> 100 µM (inactive)	20.9 µM (inactive)	36.6 µM (inactive)	47.4 µM (inactive)					
CN(C)CC1CCCC/C1=N\OC(=O)c1ccccc1 (configuration not stated)	> 100 µM (inactive)	> 100 µM (inactive)	> 100 µM (inactive)	> 100 µM (inactive)	> 100 µM (inactive)	> 100 µM (inactive)	> 100 µM (inactive)	> 100 µM (inactive)	> 100 µM (inactive)	> 100 µM (inactive)	> 100 µM (inactive)	> 100 µM (inactive)	> 100 µM (inactive)	> 100 µM (inactive)	> 100 µM (inactive)					
N#Cc1ccc(Oc2cccc(Oc3ccccc3)c2)cc1C#N	99.5 µM (inactive)	> 10 µM (inactive)	> 10 µM (inactive)	> 100 µM (inactive)	23.3 µM (inactive)	> 10 µM (inactive)	> 10 µM (inactive)	44.8 µM (inactive)	> 10 µM (inactive)	74.5 µM (inactive)	> 10 µM (inactive)	> 10 µM (inactive)	14.2 µM (inactive)	54.3 µM (inactive)	37.5 µM (inactive)					
CCC1CNC(=O)CC1CC(=O)OC (configuration not stated)			> 100 µM (inactive)	> 100 µM (inactive)		> 100 µM (inactive)	> 100 µM (inactive)	> 100 µM (inactive)	> 100 µM (inactive)		> 100 µM (inactive)	> 100 µM (inactive)	> 100 µM (inactive)	> 100 µM (inactive)	> 100 µM (inactive)					
Cc1c(/C=C2\CC/C(=C\c3[nH]c(C(=O)OC(C)(C)C)c(C)c3C)C2=O)[nH]c(C(=O)OC(C)(C)C)c1C	> 100 µM (inactive)	> 100 µM (inactive)	> 100 µM (inactive)	> 100 µM (inactive)	> 100 µM (inactive)	> 100 µM (inactive)	> 100 µM (inactive)	> 100 µM (inactive)	> 100 µM (inactive)	> 100 µM (inactive)	> 100 µM (inactive)	> 100 µM (inactive)	> 100 µM (inactive)		> 100 µM (inactive)					
C=C1CC/C=C(\C)C(=O)C[C@@H]2[C@@H]1CC2(C)C [BUDDLEDIN C]	2.31 µM (inactive)	1.8 µM (inactive)		1.1 µM (active)	0.0944 µM (active)	1.59 µM (inactive)	5.96 µM (inactive)	5.2 µM (inactive)	3.26 µM (inactive)	2.62 µM (inactive)	3.4 µM (inactive)	20.3 µM (inactive)	0.439 µM (active)	2.18 µM (inactive)	7.45 µM (inactive)	0.561 µM (active)	9.14 µM (inactive)	1.2 µM (inactive)	3.16 µM (inactive)	1.43 µM (inactive)
